Experimental data taken from ChEMBL document CHEMBL1201862, “PubChem BioAssay data set” (2004).
Each block holds one compound with its values, some of them ahead of it. Activity calls are given as the source filed them.

Legend:
A-375 = assay: A375 melanoma cell viability reduction, dose response, counter-screen for MITF modulator project, cherry-pick samples, set 2 (AID 540335); assay type: functional, cell-based; conditions: Homo sapiens
[1] = biological target: T1, Microphthalmia-associated transcription factor (Homo sapiens, UniProt O75030); assay: TRPM1 promoter luciferase signal decrease, dose response, MITF inhibitor project, cell-based, SK-MEL-5, cherry-picked, set 3 (AID 493073); assay type: functional
T1 sequence (O75030 whole entry): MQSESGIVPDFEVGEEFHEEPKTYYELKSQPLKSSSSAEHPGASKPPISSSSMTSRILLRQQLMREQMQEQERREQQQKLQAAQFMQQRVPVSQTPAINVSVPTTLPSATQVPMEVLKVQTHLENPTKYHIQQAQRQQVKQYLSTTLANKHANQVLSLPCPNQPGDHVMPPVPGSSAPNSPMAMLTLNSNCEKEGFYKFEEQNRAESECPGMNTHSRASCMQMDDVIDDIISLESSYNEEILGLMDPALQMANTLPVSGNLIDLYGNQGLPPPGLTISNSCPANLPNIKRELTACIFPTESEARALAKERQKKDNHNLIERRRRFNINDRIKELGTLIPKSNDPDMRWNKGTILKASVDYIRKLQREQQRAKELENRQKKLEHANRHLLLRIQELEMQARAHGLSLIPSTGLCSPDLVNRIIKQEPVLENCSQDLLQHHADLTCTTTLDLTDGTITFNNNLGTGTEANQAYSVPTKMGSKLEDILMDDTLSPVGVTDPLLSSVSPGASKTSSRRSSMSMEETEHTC

[2] = biological target: T2, RNA-binding protein pos-1 (Caenorhabditis elegans, UniProt G5EF15); assay: inhibitors of POS-1/mex-3 RNA binding, dose response, biochemical, fluorescence polarization (AID 1964);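 also: purified POS-1 fused to maltose binding protein made in E. coli; potency of compounds blocking POS-1 binding to fluorescent RNA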
T2 sequence (G5EF15 whole entry): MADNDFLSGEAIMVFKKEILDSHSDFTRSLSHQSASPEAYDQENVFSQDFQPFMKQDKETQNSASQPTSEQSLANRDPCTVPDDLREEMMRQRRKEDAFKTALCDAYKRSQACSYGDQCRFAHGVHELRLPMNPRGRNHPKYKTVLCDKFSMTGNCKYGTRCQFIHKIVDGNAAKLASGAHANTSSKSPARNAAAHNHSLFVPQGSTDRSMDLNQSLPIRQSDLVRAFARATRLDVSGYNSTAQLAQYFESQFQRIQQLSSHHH

[3] = biological target: Apoptotic protease-activating factor 1 (Homo sapiens, UniProt O14727); assay type: functional
[4] = biological target: T3, Zinc finger protein mex-5 (Caenorhabditis elegans, UniProt Q9XUB2); assay: MEX-5/TCR-2 RNA interaction inhibitors, dose response, biochemical, C. elegans, fluorescence polarization (AID 1960)
T3 sequence (Q9XUB2 whole entry): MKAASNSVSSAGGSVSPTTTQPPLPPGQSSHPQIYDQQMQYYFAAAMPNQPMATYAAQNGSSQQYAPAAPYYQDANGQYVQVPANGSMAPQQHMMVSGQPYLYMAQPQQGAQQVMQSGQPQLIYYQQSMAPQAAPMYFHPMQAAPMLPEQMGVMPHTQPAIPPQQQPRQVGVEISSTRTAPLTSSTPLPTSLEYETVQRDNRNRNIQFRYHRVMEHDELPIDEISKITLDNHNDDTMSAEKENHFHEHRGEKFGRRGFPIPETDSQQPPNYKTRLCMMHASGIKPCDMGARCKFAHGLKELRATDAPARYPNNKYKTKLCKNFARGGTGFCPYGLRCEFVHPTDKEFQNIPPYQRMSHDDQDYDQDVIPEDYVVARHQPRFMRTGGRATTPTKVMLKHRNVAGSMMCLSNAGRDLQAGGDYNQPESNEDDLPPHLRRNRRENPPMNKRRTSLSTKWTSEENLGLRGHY

[5] = biological target: Beta-2 adrenergic receptor (Homo sapiens, UniProt P07550); assay: beta2AR agonists driving receptor internalization, dose response, cell-based, FAP fluorogen, flow cytometry, cherry pick 1 (AID 588763); assay type: functional
Beta Lactamase [6] = biological target: T4, Beta Lactamase (Pseudomonas aeruginosa, UniProt Q932Y6); assay: beta-lactamase reporter inhibitor potency, dose response, artefact control for TLR9-MyD88 binding inhibitor project, BLA reporter cells, FRET fluorescence (AID 588341); assay type: cell-based;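 also: cell based assay in CHO-K1 cells stably expressing beta-lactamase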
Large T antigen = Large T antigen (Simian virus 40, UniProt P03070); assay type: functional, Betapolyomavirus macacae;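 also: Confirmatory-stage PubChem screen for compounds that inhibit SV40 T antigen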
[7] = HeLa cell cytotoxicity, dose response, cytotoxicity control for MgcRacGAP inhibitor project (AID 624300); assay type: functional
Beta-galactosidase = Beta-galactosidase (Escherichia coli, UniProt Q8VNN2); assay type: functional
CHO = assay: cytotoxicity in TLR9-MyD88 CHO cells, dose response, cytotoxicity control for TLR9-MyD88 binding inhibitor project, cell-based, luminescence (AID 588339); assay type: functional, hamster; conditions: Cricetulus griseus;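 also: CHO cells stably coexpressing TLR9 and MyD88 fusions from primary screen; compound exposure lasted 48 hours before viability readout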
[8] = Fluorescence-based cell-based high throughput dose response assay for inhibitors of the interaction of nucleotide-binding oligomerization domain containing 2 (NOD2) and the receptor-interacting serine-threonine kinase 2 (RIPK2).; assay type: functional; conditions: Homo sapiens
[9] = biological target: T5, Kappa-type opioid receptor (Homo sapiens, UniProt P41145); assay type: functional
Beta Lactamase [10] = biological target: T4, Beta Lactamase; assay: beta-lactamase reporter inhibitor potency, dose response, artefact control for NOD2-RIPK2 interaction inhibitor project, BLA reporter cells, FRET fluorescence (AID 651552); assay type: functional, cell-based
[11] = biological target: T6, Rac GTPase-activating protein 1 (Homo sapiens, UniProt Q9H0H5); assay: MgcRacGAP GTPase-activating activity inhibitors, confirmation, biochemical, ADP Hunter fluorescence, primary and confirmatory (AID 624330); assay type: functional
T6 sequence (Q9H0H5 whole entry): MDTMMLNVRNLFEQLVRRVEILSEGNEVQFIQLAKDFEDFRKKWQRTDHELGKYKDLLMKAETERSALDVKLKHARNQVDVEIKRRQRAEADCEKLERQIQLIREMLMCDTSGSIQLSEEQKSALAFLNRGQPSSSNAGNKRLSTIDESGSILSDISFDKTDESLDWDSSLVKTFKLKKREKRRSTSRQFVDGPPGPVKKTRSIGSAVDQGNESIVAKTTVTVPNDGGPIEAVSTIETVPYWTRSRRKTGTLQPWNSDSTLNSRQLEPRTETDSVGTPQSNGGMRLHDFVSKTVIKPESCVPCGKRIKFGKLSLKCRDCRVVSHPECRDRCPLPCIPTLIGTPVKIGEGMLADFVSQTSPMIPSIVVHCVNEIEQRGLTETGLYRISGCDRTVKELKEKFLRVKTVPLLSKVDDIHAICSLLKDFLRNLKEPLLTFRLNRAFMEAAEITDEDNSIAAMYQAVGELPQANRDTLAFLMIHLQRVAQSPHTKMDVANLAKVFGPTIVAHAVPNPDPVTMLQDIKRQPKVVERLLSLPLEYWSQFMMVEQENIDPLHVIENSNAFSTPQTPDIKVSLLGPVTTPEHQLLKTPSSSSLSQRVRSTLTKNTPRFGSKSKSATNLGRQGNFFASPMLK

INS1 [12] = assay: beta cell apoptosis inhibitors, cytokine rescue, dose response, luminescence, retest (AID 449756); assay type: functional, cell-based; conditions: Rattus norvegicus;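 also: cell death triggered by IL-1 beta plus TNF-alpha plus IFN-gamma mixture; protective hits raise ATP signal compared with cytokine alone wells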
[13] = biological target: T5, Kappa-type opioid receptor; assay type: functional; remark: listed apart in the source
[14] = ADP-Glo luciferase interference without Dyrk1A, dose response, artefact control for Dyrk1A inhibitor project, biochemical, luminescence, cherry-pick, set 02 (AID 588348)
HSP90 = HSP90 (Plasmodium falciparum 3D7, UniProt Q8IL32); assay type: functional, organism-based
INS1 [15] = assay: inhibitors of cytokine-induced nitrite release, dose response, cell-based, Griess absorbance, INS-1E, dry powder, set 2 (AID 488868); assay type: functional; conditions: Rattus norvegicus
INS1 [16] = assay: protection of INS-1E cells from cytokine death, dose response, ATP luminescence, dry powder (AID 488844); assay type: functional, cell-based; conditions: Rattus norvegicus
INS1 [17] = assay: protection from cytokine-induced mitochondrial depolarization, dose response, cell-based, INS-1E, JC-1 fluorescence ratio, dry powder (AID 488931); assay type: functional; conditions: Rattus norvegicus
INS1 [18] = assay: protection from cytokine-driven beta-cell apoptosis, dose response, JC-1 fluorescence, INS-1E, dry powder, set 2 (AID 488867); assay type: functional, cell-based; conditions: Rattus norvegicus
HEK293 [19] = assay: SAR Analysis of small molecule inhibitors of T-cell specific antigen receptor-induced NF-kB activation in a HEK-293T cell line using a luminescence assay - Set 2. [Related pubchem assays (depositor defined):AID435003, AID435012, AID489026]; assay type: functional, cell-based; conditions: Homo sapiens
Jurkat = assay: SAR Analysis of small molecule inhibitors of T-cell specific antigen receptor-induced NF-kB activation in a Jurkat cell line using a luminescence assay - Set 2. [Related pubchem assays (depositor defined):AID435003, AID435012, AID465]; assay type: functional, cell-based; conditions: Homo sapiens
HEK293 [20] = assay: cytotoxicity in HEK293T NF-kB-Luc cells, SAR follow-up, cytotoxicity control for NF-kB activator project, cell-based, resazurin fluorescence (AID 493251); assay type: functional; conditions: Homo sapiens
[21] = cytotoxicity toward NIH3T3 fibroblasts, dose response, counter-screen, cell-based, ATP luminescence, mouse fibroblasts (AID 2010); assay type: functional;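 also: cells exposed to compound for about 90 hours before reading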
[22] = C. albicans growth with fluconazole, confirmation, fluorescence, retest (AID 2467); assay type: functional, cell-based
[23] = biological target: ATP-dependent molecular chaperone HSP82 (Candida albicans (strain WO-1) (Yeast), UniProt C4YTQ8); assay: loss of DOC-induced GRE-beta-galactosidase reporter signal, dose response, Hsp90 inhibitor project, S. cerevisiae, luminescence (AID 2400); assay type: functional, cell-based;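 also: beta-galactosidase luminescence from glucocorticoid response element reporter as proxy for Hsp90 function; inhibitor potency where signal loss means Hsp90 inhibition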
[24] = biological target: Serine/threonine-protein phosphatase (Candida dubliniensis (strain CD36 / CBS 7987 / NCPF 3949 / NRRLY-17841) (Yeast), UniProt B9W6M3); assay: calcineurin pathway inhibitors in yeast reporter, dose response, S. cerevisiae, CDRE-lacZ, luminescence, secondary (AID 2388); assay type: functional, cell-based;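 also: yeast reporter cells carrying a calcineurin-responsive lacZ construct stimulated with calcium chloride; luminescent beta-galactosidase reporter signal in whole cells rather than isolated phosphatase activity; potency for inhibition where a drop in reporter signal means calcineurin blockade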
[25] = NIH-3T3 fibroblast cytotoxicity, dose response, cytotoxicity control, cell-based, fluorescence, Alamar Blue, secondary assay (AID 2327); assay type: functional;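 also: NIH-3T3 mouse fibroblasts cultured with fluconazole at 8 µg/mL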
[26] = inhibitors of intracellular T. cruzi replication, confirmation, NIH3T3 host cells, beta-gal luminescence (AID 2044); assay type: functional, cell-based;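 also: intracellular parasites grown in NIH/3T3 mouse fibroblasts as host cells; luminescent beta-galactosidase reporter signal from transgenic T. cruzi replicating inside host cells; inhibitors lower the luminescence signal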

T5 sequence (P41145 whole entry): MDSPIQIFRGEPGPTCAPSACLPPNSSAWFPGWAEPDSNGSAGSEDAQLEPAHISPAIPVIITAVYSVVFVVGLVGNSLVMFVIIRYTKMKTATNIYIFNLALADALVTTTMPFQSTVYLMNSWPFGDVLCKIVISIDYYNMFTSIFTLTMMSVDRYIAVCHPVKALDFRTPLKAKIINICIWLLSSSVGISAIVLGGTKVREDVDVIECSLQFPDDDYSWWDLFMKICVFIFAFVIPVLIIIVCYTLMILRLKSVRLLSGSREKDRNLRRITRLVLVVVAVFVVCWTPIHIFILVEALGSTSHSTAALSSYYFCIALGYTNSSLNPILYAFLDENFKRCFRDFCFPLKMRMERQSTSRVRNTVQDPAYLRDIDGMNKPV
T4 sequence (Q932Y6 whole entry): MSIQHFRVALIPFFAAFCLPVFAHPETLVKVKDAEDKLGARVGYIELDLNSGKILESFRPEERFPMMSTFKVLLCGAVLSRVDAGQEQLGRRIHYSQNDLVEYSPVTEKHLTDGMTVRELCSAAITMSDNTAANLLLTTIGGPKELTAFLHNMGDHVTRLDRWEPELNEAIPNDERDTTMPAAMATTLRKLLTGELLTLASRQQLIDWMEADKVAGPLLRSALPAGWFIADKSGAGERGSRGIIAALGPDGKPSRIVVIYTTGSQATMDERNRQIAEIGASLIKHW
Sequence of Apoptotic protease-activating factor 1 (O14727 whole entry): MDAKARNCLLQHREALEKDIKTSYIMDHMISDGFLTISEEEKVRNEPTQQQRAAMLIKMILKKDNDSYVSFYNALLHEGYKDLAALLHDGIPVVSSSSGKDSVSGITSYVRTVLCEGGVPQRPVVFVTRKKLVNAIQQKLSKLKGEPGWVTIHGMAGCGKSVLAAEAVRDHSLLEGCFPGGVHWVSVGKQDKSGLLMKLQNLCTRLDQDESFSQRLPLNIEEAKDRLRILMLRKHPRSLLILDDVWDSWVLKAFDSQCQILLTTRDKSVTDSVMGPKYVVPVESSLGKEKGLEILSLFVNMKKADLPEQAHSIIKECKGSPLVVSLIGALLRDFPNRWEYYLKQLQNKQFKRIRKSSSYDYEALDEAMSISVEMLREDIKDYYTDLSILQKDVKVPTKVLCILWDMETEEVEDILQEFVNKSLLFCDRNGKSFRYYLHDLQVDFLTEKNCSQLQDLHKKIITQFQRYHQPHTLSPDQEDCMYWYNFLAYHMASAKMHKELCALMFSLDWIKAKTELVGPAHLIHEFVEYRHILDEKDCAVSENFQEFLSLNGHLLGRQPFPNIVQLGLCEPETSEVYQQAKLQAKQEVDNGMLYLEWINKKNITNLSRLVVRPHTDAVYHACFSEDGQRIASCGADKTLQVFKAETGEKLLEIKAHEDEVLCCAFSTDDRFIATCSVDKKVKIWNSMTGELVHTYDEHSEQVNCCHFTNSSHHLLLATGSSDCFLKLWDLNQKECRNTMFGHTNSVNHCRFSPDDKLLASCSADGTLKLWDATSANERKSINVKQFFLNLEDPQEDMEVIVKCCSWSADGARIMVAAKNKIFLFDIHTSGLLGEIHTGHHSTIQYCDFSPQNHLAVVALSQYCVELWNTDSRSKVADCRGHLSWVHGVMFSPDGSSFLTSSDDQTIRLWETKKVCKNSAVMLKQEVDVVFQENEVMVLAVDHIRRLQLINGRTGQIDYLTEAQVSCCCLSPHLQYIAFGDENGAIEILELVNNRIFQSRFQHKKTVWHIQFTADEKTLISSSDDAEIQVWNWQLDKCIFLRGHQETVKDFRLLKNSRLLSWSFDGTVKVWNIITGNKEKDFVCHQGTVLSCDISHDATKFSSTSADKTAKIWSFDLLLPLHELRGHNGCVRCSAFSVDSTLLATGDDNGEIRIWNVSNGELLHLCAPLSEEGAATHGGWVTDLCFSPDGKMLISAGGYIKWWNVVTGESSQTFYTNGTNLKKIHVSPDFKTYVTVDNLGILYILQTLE
Sequence of Large T antigen (P03070 whole entry): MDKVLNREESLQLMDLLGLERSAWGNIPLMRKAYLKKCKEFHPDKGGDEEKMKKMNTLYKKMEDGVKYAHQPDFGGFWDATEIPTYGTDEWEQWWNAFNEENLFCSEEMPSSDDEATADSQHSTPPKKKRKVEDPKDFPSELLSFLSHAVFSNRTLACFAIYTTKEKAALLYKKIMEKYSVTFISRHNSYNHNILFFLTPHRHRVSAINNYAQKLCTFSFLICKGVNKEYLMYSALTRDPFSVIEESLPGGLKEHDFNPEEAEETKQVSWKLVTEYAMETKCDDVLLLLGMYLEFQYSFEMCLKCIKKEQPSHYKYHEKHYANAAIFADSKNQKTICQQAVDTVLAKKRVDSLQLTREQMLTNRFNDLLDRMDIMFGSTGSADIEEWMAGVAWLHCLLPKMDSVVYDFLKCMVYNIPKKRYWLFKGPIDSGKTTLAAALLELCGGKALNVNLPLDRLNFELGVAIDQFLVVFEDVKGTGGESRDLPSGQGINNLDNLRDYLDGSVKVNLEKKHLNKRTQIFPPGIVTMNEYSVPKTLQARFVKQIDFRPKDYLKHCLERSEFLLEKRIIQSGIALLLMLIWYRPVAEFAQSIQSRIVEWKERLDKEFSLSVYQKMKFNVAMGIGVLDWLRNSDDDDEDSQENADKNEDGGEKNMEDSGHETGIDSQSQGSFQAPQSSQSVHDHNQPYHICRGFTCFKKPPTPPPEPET
Sequence of Serine/threonine-protein phosphatase (B9W6M3 whole entry): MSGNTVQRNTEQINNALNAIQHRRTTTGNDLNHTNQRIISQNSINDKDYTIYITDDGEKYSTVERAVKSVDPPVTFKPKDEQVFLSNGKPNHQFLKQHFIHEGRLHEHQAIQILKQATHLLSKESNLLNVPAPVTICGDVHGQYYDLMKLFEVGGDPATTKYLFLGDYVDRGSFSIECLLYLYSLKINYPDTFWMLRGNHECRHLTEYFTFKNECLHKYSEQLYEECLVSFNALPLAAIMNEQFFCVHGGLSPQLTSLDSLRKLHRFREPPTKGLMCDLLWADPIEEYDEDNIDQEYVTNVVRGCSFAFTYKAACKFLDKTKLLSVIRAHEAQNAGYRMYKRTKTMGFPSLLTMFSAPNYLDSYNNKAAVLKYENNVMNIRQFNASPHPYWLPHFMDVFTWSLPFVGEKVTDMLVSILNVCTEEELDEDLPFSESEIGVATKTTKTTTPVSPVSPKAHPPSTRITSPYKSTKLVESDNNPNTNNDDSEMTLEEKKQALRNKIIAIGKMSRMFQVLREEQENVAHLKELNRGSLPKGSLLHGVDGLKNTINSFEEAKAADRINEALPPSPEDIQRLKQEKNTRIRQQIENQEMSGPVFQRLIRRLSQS
Sequence of ATP-dependent molecular chaperone HSP82 (C4YTQ8 whole entry): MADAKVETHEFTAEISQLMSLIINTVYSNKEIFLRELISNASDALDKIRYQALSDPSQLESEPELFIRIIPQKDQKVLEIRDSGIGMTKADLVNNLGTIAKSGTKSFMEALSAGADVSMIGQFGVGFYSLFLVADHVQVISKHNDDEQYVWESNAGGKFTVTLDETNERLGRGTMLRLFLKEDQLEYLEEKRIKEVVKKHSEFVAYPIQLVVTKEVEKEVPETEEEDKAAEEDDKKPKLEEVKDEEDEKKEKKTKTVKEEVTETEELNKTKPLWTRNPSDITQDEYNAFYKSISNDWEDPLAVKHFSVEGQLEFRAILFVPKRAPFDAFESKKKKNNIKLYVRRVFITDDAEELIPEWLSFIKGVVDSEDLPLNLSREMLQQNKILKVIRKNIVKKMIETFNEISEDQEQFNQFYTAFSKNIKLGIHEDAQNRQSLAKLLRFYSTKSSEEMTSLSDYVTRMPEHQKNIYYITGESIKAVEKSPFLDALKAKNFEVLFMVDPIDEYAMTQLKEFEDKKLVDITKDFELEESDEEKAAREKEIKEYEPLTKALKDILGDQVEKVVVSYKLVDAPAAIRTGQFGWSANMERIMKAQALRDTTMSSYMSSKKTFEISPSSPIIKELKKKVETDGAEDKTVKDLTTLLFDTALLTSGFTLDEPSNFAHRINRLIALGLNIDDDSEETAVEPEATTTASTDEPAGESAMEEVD
Sequence of HSP90 (Q8IL32 whole entry): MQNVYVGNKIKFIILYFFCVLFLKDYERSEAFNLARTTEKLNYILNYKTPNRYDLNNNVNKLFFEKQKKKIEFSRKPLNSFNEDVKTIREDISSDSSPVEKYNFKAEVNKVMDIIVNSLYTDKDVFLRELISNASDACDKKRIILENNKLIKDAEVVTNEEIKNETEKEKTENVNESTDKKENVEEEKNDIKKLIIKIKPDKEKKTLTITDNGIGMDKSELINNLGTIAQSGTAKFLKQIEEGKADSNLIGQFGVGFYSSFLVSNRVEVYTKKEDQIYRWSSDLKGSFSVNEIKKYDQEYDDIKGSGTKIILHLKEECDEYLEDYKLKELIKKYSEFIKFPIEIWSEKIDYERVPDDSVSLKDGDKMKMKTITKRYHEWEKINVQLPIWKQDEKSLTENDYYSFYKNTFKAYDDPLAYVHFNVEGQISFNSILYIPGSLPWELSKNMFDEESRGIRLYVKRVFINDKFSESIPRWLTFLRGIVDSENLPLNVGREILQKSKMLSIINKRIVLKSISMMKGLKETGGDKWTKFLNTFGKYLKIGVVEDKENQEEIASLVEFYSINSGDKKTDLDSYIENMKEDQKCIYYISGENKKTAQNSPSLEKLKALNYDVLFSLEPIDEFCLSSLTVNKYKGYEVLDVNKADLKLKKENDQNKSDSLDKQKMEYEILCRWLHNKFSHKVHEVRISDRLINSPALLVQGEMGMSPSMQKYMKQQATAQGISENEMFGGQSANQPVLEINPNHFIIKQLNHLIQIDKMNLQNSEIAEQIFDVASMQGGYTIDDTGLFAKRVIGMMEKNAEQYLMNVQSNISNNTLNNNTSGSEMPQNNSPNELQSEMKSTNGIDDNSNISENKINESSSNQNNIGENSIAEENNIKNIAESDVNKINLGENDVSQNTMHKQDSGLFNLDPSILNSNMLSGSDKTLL

Compound: Cc1ccc(C(=O)N/C(=C\c2ccc(-c3ccccc3[N+](=O)[O-])o2)C(=O)NCCCN(C)C)cc1
AC50 (A-375): 33.4 µM (active)
AC50 [1]: 3.28 µM (active)
EC50 [2]: > 300 µM (inconclusive)
IC50 [3]: 70.1 µM (active)
EC50 [4]: 18.6 µM (active)

EC50 [5]: 0.575 µM (active)
Compound: CN(c1ccccc1)S(=O)(=O)c1cccc(C(=O)Nc2cccc(C(=O)NC3CC3)c2)c1

Compound: N#CC(C#N)=C1C=CC=CN1/C(=C\c1ccco1)C(=O)c1ccc(Br)cc1
IC50 (Beta Lactamase [6]): 13.2 µM (inactive)
IC50 (Large T antigen): 15.5 µM (active)
AC50 [1]: 5.59 µM (active)
CC50 [7]: 100 µM (active)
EC50 (Beta-galactosidase): > 31.5 µM (inactive)
IC50 (CHO): 1.56 µM (active)
IC50 [8]: 0.895 µM (active)
IC50 [9]: 4.51 µM (active)
IC50 (Beta Lactamase [10]): 44.7 µM (inactive)
IC50 [11]: 88.7 µM (active)
AC50 (INS1 [12]): 7.3 µM (active)
IC50 [13]: 15.4 µM

Compound: CC(=O)Nc1cccc(C(=O)OCC(=O)c2ccc3c(c2)OCO3)c1
AC50 [14]: 50.2 µM (active)

AC50 (HSP90): 32.5 µM (active)
Compound: O=C(COc1ccc(Cl)cc1)NC1=NN(c2ccccc2)C(=O)C1

Compound: Cc1ccc(S(=O)(=O)N(C)C[C@@H]2Oc3c(NC(=O)Nc4cccc5ccccc45)cccc3C(=O)N([C@H](C)CO)C[C@H]2C)cc1
AC50 (INS1 [15]): 30.3 µM (active)
AC50 (INS1 [16]): > 235 µM (inactive)
AC50 (INS1 [17]): 61.1 µM (active)

Compound: COc1ccc(S(=O)(=O)N(C)C[C@@H]2Oc3c(NC(=O)Nc4ccc(F)cc4)cccc3C(=O)N([C@@H](C)CO)C[C@H]2C)cc1
AC50 (INS1 [18]): 134 µM (active)
AC50 (INS1 [16]): 22.8 µM (active)

Compound: COc1cc(NC(=O)c2ccc3c(c2)OCO3)ccc1NC(=O)c1cc2ccccc2o1
IC50 (HEK293 [19]): > 80 µM (inactive)
IC50 (Jurkat): > 79 µM (inactive)
IC50 (HEK293 [20]): > 80 µM (inactive)

Compound: CCOc1ccccc1NC(=O)C(=O)N/N=C/c1cc(Br)ccc1O
EC50 [21]: > 60 µM (not active)
EC50 [22]: 0.358 µM (active)
EC50 [23]: > 160 µM (inactive)
AC50 [1]: 3.34 µM (active)
EC50 [24]: > 180 µM (inactive)
AC50 (INS1 [12]): 1.04 µM (active)
EC50 [25]: > 160 µM (inactive)
EC50 [26]: 1.02 µM (active)
